Test results reported in patent US9855204B1, “Methods and compositions for treating androgenetic alopecia” (priority 2015, dated 2018).

Legend:
[1] = test system: Androgenic Alopecia Females; experiment: Androgenic Alopecia Females, Global Photographic Assessment (Omnia System); type: in vivo, human; details: 2 mg daily, 6 months, 15 treated
Excerpt: (§1) The description of the experiments and their results are presented in the 4 tables below. In these experiments the subjects self-administered CEP for at least 6 months.

[2] = test system: Androgenetic Alopecia Males; experiment: Androgenetic Alopecia Males Arm 1, Global Photographic Assessment (Omnia System); type: in vivo, human; details: 2 mg once daily, 6 months, 20 treated
Excerpt: as §1

[3] = test system: Androgenetic Alopecia Males; experiment: Androgenetic Alopecia Males Arm 2, Global Photographic Assessment (Omnia System); type: in vivo, human; details: 2 mg once every other day, 6 months, 20 treated
Excerpt: as §1

androgenetic alopecia = experiment: CEP in subjects with androgenetic alopecia, overall findings of the experiments; type: in vivo, human; details: inferred from benefit in users who skipped daily doses
Excerpt: It is effective when dosed once daily or even once every other day, both of which make compliance much easier than dividing the doses into greater frequency. It is effective without regard to consumption following meals.
as §1
Some users were not perfectly compliant, sometimes skipping their daily doses. […] The expected effective dose range is from about 0.5 mg per day to about 100 mg per day.

[4] = prior medical use of CEP; cited from earlier work
DHT levels = details: 1 mg dose taken daily; cited from earlier work
male pattern baldness = details: cited from earlier work

COc1ccc2cc1Oc1ccc(cc1)C[C@H]1c3c(cc4c(c3Oc3cc5c(cc3OC)CCN(C)[C@@H]5C2)OCO4)CCN1C [Cepharanthine]
number of subjects with score Greatly decreased [1]: 0
number of subjects with score Greatly increased [1]: 1
number of subjects with score Moderately decreased [1]: 0
number of subjects with score Moderately increased [1]: 2
number of subjects with score No change [1]: 3
number of subjects with score Slightly decreased [1]: 1
number of subjects with score Slightly increased [1]: 8
number of subjects with score Greatly decreased [2]: 0
number of subjects with score Greatly increased [2]: 1
number of subjects with score Moderately decreased [2]: 0
number of subjects with score Moderately increased [2]: 7
number of subjects with score No change [2]: 3
number of subjects with score Slightly decreased [2]: 1
number of subjects with score Slightly increased [2]: 8
number of subjects with score Greatly decreased [3]: 0
number of subjects with score Greatly increased [3]: 0
number of subjects with score Moderately decreased [3]: 0
number of subjects with score Moderately increased [3]: 5
number of subjects with score No change [3]: 4
number of subjects with score Slightly decreased [3]: 2
number of subjects with score Slightly increased [3]: 9
effective dose (androgenetic alopecia): about 0.5 mg CEP a day
safety issues [4]: No safety issues have been observed
side effects [4]: very rarely reported

CC(C)(C)NC(=O)[C@H]1CC[C@H]2[C@@H]3CC[C@H]4NC(=O)C=C[C@]4(C)[C@H]3CC[C@]12C [finasteride, Finasteride]
lowering of DHT levels (DHT levels): ≤ 60%
trial participants with substantial increase in hair growth (male pattern baldness; clinical trials, men): 65%
men in whom progression of hair loss stopped (male pattern baldness; men taking the drug during clinical trials): 86%
men experiencing transient sexual side effects including erectile and libido difficulties (male pattern baldness; men): Less than 2%
